In US20180273531A1, “PYRIMIDINE COMPOUND AND MEDICAL USE THEREOF” (Japan Tobacco Inc., priority 2004, published 2018):

Legend:
Assay type in all cases: cell-based
[1] = tested on: colorectal cancer cell line HT-29 cells; test: Growth inhibitory effect against cancer cell lines (3H-thymidine uptake), HT-29; settings: Homo sapiens, HT-29, inhibition of 3H-thymidine uptake; test substance 18 hrs, then 3H-thymidine 6 hrs; triplicate
In short: (§1)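 IC50 = concentration reducing ^3H-thymidine incorporation to 50% of DMSO control, measured in triplicate. Compound added 24 hrs after plating (1.0×10^4 cells/well); label (0.25 μCi/well) given after 18 hrs of treatment, followed by 6 hrs further culture and scintillation counting of harvested cells.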

p27 protein = p27 protein induction test (Western blotting); settings: test substance (0.1 1M), 24 hrs, ACHN cells or HT-29 cells, compared to DMSO, n=2
Procedure: ACHN cells or HT-29 cells were cultured in a 6 well plate at 2.5×10^5 cells/1.8 mL/well for 24 hrs, a test substance ([…]) dissolved in DMSO was added. After 24 hrs, cells were detached using trypsin-EDTA (ethylene diamine tetraacetic acid) and solubilized with NuPAGE LDS sample buffer (Invitrogen). Using an RC DC protein assay kit (BIO-RAD), the protein concentration of the sample was quantitated, and a sample in an amount corresponding to 10 μg of BSA (bovine serum albumin) was analyzed by Western blotting using an anti-p27 antibody. The density of the band stained with the anti-p27 antibody was measured by a densitometer to quantify the amount of p27 protein. As a control, DMSO was used and the test was performed with n=2 and the average protein amount was determined.

p15 protein = test: Evaluation of p15 induction activity (Western blotting); settings: test substance 0.1 μM, 24 hrs, ACHN cells or HT-29 cells, compared to DMSO, n=2
In short: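 p15 protein quantified by densitometry of anti-p15 Western blots (10 μg protein per lane, mean of n=2). Samples came from HT-29 or ACHN cells given 0.1 μM compound for 24 h after 24 h plating, with DMSO as control.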

[2] = tested on: Renal cancer cell line ACHN cell; test: Growth inhibitory effect against cancer cell lines (3H-thymidine uptake), ACHN; settings: Homo sapiens, ACHN
In short: as §1

SMILES | IC50 [1] [µM] | IC50 [2] [µM] | fold induction at 0.1 µM (p27 protein) | fold induction at 0.1 µM (p15 protein)
Cc1c(=O)n(C)c(Nc2ccc(I)cc2F)c2c(=O)n(C3CC3)c(=O)n(-c3cccc(NS(C)(=O)=O)c3)c12 [Example 3-7, N-{3-[3-cyclopropyl-5-(2-fluoro-4-iodophenylamino)-6,8-dimethyl-2,4,7-trioxo-3,4,6,7-tetrahydro-2H-pyrido[4,3-d]pyrimidin-1-yl]phenyl}methanesulfonamide] | < 0.01 | < 0.01 | ≥ 1.5 | ≥ 1.5
C#Cc1ccc(Nc2c3c(=O)n(C4CC4)c(=O)n(-c4cccc(NS(=O)(=O)CC)c4)c3c(C)c(=O)n2C)c(F)c1 [Example 4-6] | < 0.01 | 0.01 to 0.1 | ≥ 1.5 | ≥ 1.5
C=Cc1ccc(Nc2c3c(=O)n(C4CC4)c(=O)n(-c4cccc(NC(C)=O)c4)c3c(C)c(=O)n2C)c(F)c1 [Example 4-11] | < 0.01 | 0.01 to 0.1 | ≥ 1.5 | ≥ 1.5
CCc1ccc(Nc2c3c(=O)n(CC)c(=O)n(-c4cccc(NC(C)=O)c4)c3c(C)c(=O)n2C)c(F)c1 [Example 4-45] | 0.01 to 0.1 | 0.1 to 1 | ≥ 1.5 | ≥ 1.5
C#Cc1ccc(Nc2c3c(=O)n(C)c(=O)n(-c4cccc(NC(C)=O)c4)c3c(C)c(=O)n2C)c(F)c1 [Example 4-48] | < 0.01 | 0.01 to 0.1 | ≥ 1.5 | ≥ 1.5
CCc1ccc(Nc2c3c(=O)n(C)c(=O)n(-c4cccc(NC(C)=O)c4)c3c(C)c(=O)n2C)c(F)c1 [Example 4-50] | 0.01 to 0.1 | 0.1 to 1 | ≥ 1.5 | ≥ 1.5

Further lines, with some results ahead:

IC50 [1] [µM] | IC50 [2] [µM] | SMILES | fold induction at 0.1 µM (p27 protein) | fold induction at 0.1 µM (p15 protein)
< 0.01 | 0.01 to 0.1 | CSc1ccc(Nc2cc(=O)n(C)c3c2c(=O)n(C2CC2)c(=O)n3-c2cccc(NC(C)=O)c2)c(F)c1 [Example 1-341] | ≥ 1.5 | ≥ 1.5
< 0.01 | 0.1 to 1 | CC(=O)Nc1cccc(-n2c(=O)n(C3CC3)c(=O)c3c(Nc4ccc(CCF)cc4F)cc(=O)n(C)c32)c1 [Example 1-342] | ≥ 1.5 | ≥ 1.5
< 0.01 | 0.01 to 0.1 | Cc1c(=O)n(C)c(Nc2ccc(Br)cc2F)c2c(=O)n(C3CC3)c(=O)n(-c3cccc(NS(C)(=O)=O)c3)c12 [Example 3-4] | ≥ 1.5 | ≥ 1.5
< 0.01 | < 0.01 | CCS(=O)(=O)Nc1cccc(-n2c(=O)n(C3CC3)c(=O)c3c(Nc4ccc(I)cc4F)n(C)c(=O)c(C)c32)c1 [Example 4-2] | ≥ 1.5 | ≥ 1.5
< 0.01 | 0.01 to 0.1 | CCc1ccc(Nc2c3c(=O)n(C4CC4)c(=O)n(-c4cccc(NC(C)=O)c4)c3c(C)c(=O)n2C)c(F)c1 [Example 4-9] | ≥ 1.5 | ≥ 1.5
0.01 to 0.1 | 0.1 to 1 | CCS(=O)(=O)c1cccc(-n2c(=O)n(C3CC3)c(=O)c3c(Nc4ccc(Br)cc4F)n(C)c(=O)c(C)c32)c1 [Example 4-10] | ≥ 1.5 | ≥ 1.5
< 0.01 | 0.01 to 0.1 | CCCCC(=O)NCCC(=O)Nc1cccc(-n2c(=O)n(C3CC3)c(=O)c3c(Nc4ccc(I)cc4F)n(C)c(=O)c(C)c32)c1 [Example 4-12] | ≥ 1.5 | ≥ 1.5
< 0.01 | 0.01 to 0.1 | CCn1c(=O)c2c(Nc3ccc(I)cc3F)n(C)c(=O)c(C)c2n(-c2cccc(NC(C)=O)c2)c1=O [Example 4-21] | ≥ 1.5 | ≥ 1.5
0.01 to 0.1 | 0.1 to 1 | C#Cc1ccc(Nc2c3c(=O)n(CC)c(=O)n(-c4cccc(NC(C)=O)c4)c3c(C)c(=O)n2C)c(F)c1 [Example 4-43] | ≥ 1.5 | ≥ 1.5
